Data reported in patent US9950987B2, “Aspirin derivatives and uses thereof” (North Carolina Agricultural and Technical State University, priority 2012, dated 2018).
“Also recorded” adds a separate entry of the source.

How the values were obtained:
[1] = system: HCT-116 human colon cancer cells; assay: MTT growth inhibition assay, HCT-116; format: cell-based; settings: 48 h, relative to control
Experimental: (§1) The effects of the aspirin-stilbene derivative conjugates compared to standards were evaluated based on the inhibition of growth of HCT-116 and HT-29 human colon cancer cells. Cells were plated in 96-well plates in growth medium with 10% FBS. After 24 h, the medium was replaced with fresh medium containing test agent with desired final concentration (20, 30, 40, 50, and 60 μM), and the cells were incubated for 48 h. Viable cells were analyzed using the MTT assay, and the results are shown (FIG. 1) relative to control. Each value represents the mean±S.D. (n=8). FIG. 1, Panel A summarizes the results for aspirin (As), Res, RAS, RAS-1, and the combination of resveratrol and aspirin (Res+As). […] FIG. 1, Panel B summarizes the results for As, MRes, MRAS and the combination of MRes and aspirin (MRes+As). […] FIG. 1, Panel C summarizes the results for As, Pt, PAS, and the combination of pterostilbene and aspirin (Pt+As).
(§2) The effects of As, 6-shogaol (6-s), SAS and the combination of 6-shogaol and aspirin (6-s+As) on the growth of HCT-116 and HT-29 human colon cancer cells and H1299 human lung cancer cells were measured. Cells were plated in 96-well plates in growth medium with 10% FBS. After 24 h, the medium was replaced with fresh medium containing test agent with desired final concentration (5, 7.5, 10, 15, and 20 μM), and the cells were incubated for 48 h. Viable cells were analyzed using the MTT assay, and the results are shown relative to control (FIG. 2).
as §2, with “6-gingerol (6g), GAS,” for “6-shogaol (6-s), SAS”, “6-gingerol” for “6-shogaol”, “(6g+As)” for “(6-s+As)”, “(20, 40, 60, 80,” for “(5, 7.5, 10, 15,”, “100” for “20”, “3).” for “2).”

[2] = system: H1299 human lung cancer cells; assay: MTT growth inhibition assay, H1299; format: cell-based; settings: 48 h, relative to control
Experimental: as §2
as §2, with “6-gingerol (6g), GAS,” for “6-shogaol (6-s), SAS”, “6-gingerol” for “6-shogaol”, “(6g+As)” for “(6-s+As)”, “(20, 40, 60, 80,” for “(5, 7.5, 10, 15,”, “100” for “20”, “3).” for “2).”

[3] = system: HT-29 human colon cancer cells; assay: MTT growth inhibition assay, HT-29; format: cell-based; settings: 48 h, relative to control
Experimental: as §1, §2
as §2, with “6-gingerol (6g), GAS,” for “6-shogaol (6-s), SAS”, “6-gingerol” for “6-shogaol”, “(6g+As)” for “(6-s+As)”, “(20, 40, 60, 80,” for “(5, 7.5, 10, 15,”, “100” for “20”, “3).” for “2).”

[4] = system: human colon cancer cells (HCT-116)
[5] = system: human colon cancer cells (HT-29)
[6] = Urinary metabolic profile in mice (LC/MS); format: in vivo; settings: oral gavage 200 mg/kg, 24 h urine, FIG. 5
Experimental: The metabolic profile of Pt using LC/MS 23 was investigated. PAS was administered to mice (n=5) by oral gavage (200 mg/kg), and urine samples were collected in metabolism cages for 24 h after administration of vehicle (control mice) or PAS. LC/MS methods were developed to analyze PAS, pterostilbene, and aspirin. LC chromatograms of urine samples collected from PAS-treated mice obtained using positive APCI-MS interface (FIG. 5): (A) before and (B) after enzymatic hydrolysis (treated with β-glucuronidase and sulfatase); using negative ESI-MS interface: (C) before and (D) after enzymatic hydrolysis.
PAS had the highest response under positive APCI/MS mode, and aspirin and salicylic acid had the highest response under negative ESI/MS mode. Both positive APCI/MS and negative ESI/MS modes are sensitive to pterostilbene. However, aspirin and salicylic acid are hardly detectable under positive APCI/MS mode, and PAS is not detectable under negative ESI/MS mode. Therefore, APCI/MS positive mode was used to analyze PAS, pterostilbene, and their metabolites, and ESI/MS negative mode was used to analyze aspirin, pterostilbene, and their metabolites.

CCCCCC(O)CC(=O)CCc1ccc(OC(=O)c2ccccc2OC(C)=O)c(OC)c1 (stereo not shown) [GAS, 6-gingerol aspirinate]
growth inhibitory effect ([1]; 20, 40, 60, 80, 100 μM, FIG. 3): much stronger growth inhibitory effect than 6-gingerol and aspirin alone, as well as the combination of 6-gingerol and aspirin (1:1) | growth inhibitory effect ([2]; 20, 40, 60, 80, 100 μM, FIG. 3): much stronger growth inhibitory effect than 6-gingerol and aspirin alone, as well as the combination of 6-gingerol and aspirin (1:1) | growth inhibitory effect ([3]; 20, 40, 60, 80, 100 μM, FIG. 3): much stronger growth inhibitory effect than 6-gingerol and aspirin alone, as well as the combination of 6-gingerol and aspirin (1:1)

CCCCC/C=C/C(=O)CCc1ccc(OC(=O)c2ccccc2OC(C)=O)c(OC)c1 [SAS, 6-shogaol aspirinate]
growth inhibitory effect ([1]; 5, 7.5, 10, 15, 20 μM, FIG. 2): stronger growth inhibitory effect than aspirin alone, but less effective than 6-shogaol alone and the combination of 6-shogaol and aspirin (1:1) | growth inhibitory effect ([2]; 5, 7.5, 10, 15, 20 μM, FIG. 2): stronger growth inhibitory effect than aspirin alone, but less effective than 6-shogaol alone and the combination of 6-shogaol and aspirin (1:1) | growth inhibitory effect ([3]; 5, 7.5, 10, 15, 20 μM, FIG. 2): stronger growth inhibitory effect than aspirin alone, but less effective than 6-shogaol alone and the combination of 6-shogaol and aspirin (1:1)

CC(=O)Oc1ccccc1C(=O)Oc1ccc(/C=C/c2cc(O)cc(O)c2)cc1 [RAS, 4′-aspirinated resveratrol]
hydrolysis in cells [4]: hydrolyzed in human colon cancer cells (HCT-116 and HT-29) to generate resveratrol and aspirin | hydrolysis in cells [5]: hydrolyzed in human colon cancer cells (HCT-116 and HT-29) to generate resveratrol and aspirin | growth inhibitory effect ([1]; 20, 30, 40, 50, 60 μM, FIG. 1): stronger growth inhibitory effect than resveratrol and aspirin alone, and stronger than the combination of resveratrol and aspirin (1:1); also recorded: much stronger growth inhibitory effects than RAS-1, MRAS, and PAS | growth inhibitory effect ([3]; 20, 30, 40, 50, 60 μM, FIG. 1): stronger growth inhibitory effect than resveratrol and aspirin alone, and stronger than the combination of resveratrol and aspirin (1:1); also recorded: much stronger growth inhibitory effects than RAS-1, MRAS, and PAS

mono-methylated resveratrol aspirinate [MRAS]
growth inhibitory effect ([1]; 20, 30, 40, 50, 60 μM, FIG. 1): weaker growth inhibitory effects than MRes and the combination of MRes and aspirin (1:1) | growth inhibitory effect ([3]; 20, 30, 40, 50, 60 μM, FIG. 1): weaker growth inhibitory effects than MRes and the combination of MRes and aspirin (1:1)

COc1cc(C=Cc2ccc(OC(=O)c3ccccc3OC(C)=O)cc2)cc(OC)c1 [PAS, pterostilbene aspirinate]
detection of parent compound or deacetylated metabolites in urine [6]: neither PAS nor its deacetylated metabolites were detected | hydrolysis in vivo (urinary metabolites) [6]: hydrolyzed in mice to generate metabolites of aspirin and pterostilbene | growth inhibitory effect ([1]; 20, 30, 40, 50, 60 μM, FIG. 1): weaker growth inhibitory effects than pterostilbene and the combination of pterostilbene and aspirin (1:1) | growth inhibitory effect ([3]; 20, 30, 40, 50, 60 μM, FIG. 1): weaker growth inhibitory effects than pterostilbene and the combination of pterostilbene and aspirin (1:1)
